Data published in patent US11311632B2, “Viral vectors for prophylaxis and therapy of hemoglobinopathies” (Cornell University, priority 2015, dated 2022).
Where two headings read alike, the source gives them in different places.

Assays:
[1] = system: CD34+-derived SCD erythroid cells; test: Hemoglobin (HbF, HbS, HbA2) content by HPLC in differentiated CD34+-derived SCD erythroid cells; type: cell-based, human
Description: To obtain the data presented here, we used the lentiviral vector pCL-ZF-Ldb1, (FIG. 11, top vector map), which carries a zinc-finger protein that specifically binds the γ-globin promoters, fused to the self-association (SA) domain of Ldb1, as well as a green fluorescent protein under the control of the erythroid specific ankyrin promoter. […] Cell, 2014. 158(4): p. 849-60].
In particular, we analyzed the mRNA and protein content of erythroblasts derived from 10 SCD subjects. CD34+ cells isolated from peripheral blood mononuclear cells (PBMCs) were frozen and used for independent replicate experiments. Infection with pCL-ZF-Ldb1 was performed on pro-erythroblast within the first 10 days of the expansion phase.
A scheme of the experimental procedures is illustrated in FIG. 16. […] Exp Hematol, 2005. 33(12): p. […] J Clin Invest, 2008. 118(1): p. […] Nat Med, 2013. 19(3): p. 291-4]. Studies were performed on day 8 of differentiation phase, at the orthochromatophilic stage when high amounts of hemoglobin were accumulated.
(§1) CD34+ cells selection from blood samples was performed by immunomagnetic separation, using the CD34 microbeads kit (Miltenyi Biotec Inc., Auburn, Calif.). These cells were then expanded following a modified version of the protocol described by Leberbauer and colleagues. Cells were seeded in 5 mL of serum-free StemSpan with 50 μL of StemSpan CC-100 cytokine cocktail (both from Stemcell Technologies, Vancouver, BA, Canada), 2 U/mL Erytrhopoietin (Amgen, Thousand Oaks, Calif.), 10^-6 M dexamethasone (Sigma) and 1% penicillin streptomycin. CD34+ cultures were kept undifferentiated by refreshing the medium twice a week and density gradient centrifugation was used to remove both dead and spontaneously differentiating cells. At this stage cells were either frozen (with 50% characterized Hyclone FBS, 10% DMSO, Sigma, and 40% Iscove's Modified DMEM, Cellgro), or used for experiments. After 10 days in phase I, cells were transferred into phase II media containing α-modified essential medium supplemented with 30% fetal calf serum and 10^-5 M β-mercaptoethanol. Erythropoietin was added (5 U/mL) to stimulate erythroid differentiation.

[2] = system: SCD erythroblasts; test: Erythroid cell count / viability (benzidine+ cells) of treated SCD erythroblasts; conditions: same treatments and doses as HbF induction comparison
Method: as §1

[3] = SCD erythroid cells, summary in description
[4] = day 8 of differentiation, same treatments and doses as net HbF increase

Structure (SMILES)	net HbS decrease ([1]; 192 h)	net HbF increase ([1]; 192 h, 30 µM)	viability compared to untreated samples [2]	induction of HbF (qualitative summary) [1, 3]	net HbS decrease [1, 4]	induction of HbF (qualitative summary) [1]	net HbF increase [1]	net HbS decrease [1]
Nc1cccc2c1C(=O)N(C1CCC(=O)NC1=O)C2=O (stereo not shown) [pomalidomide]	11.61−%±9.27	11.84%±9.02	reduced viability					
NC(=O)NO [hydroxyurea]			reduced viability	marginal HbF induction	−3.48%±4.68			
N[C@@H]1C[C@H]1c1ccccc1 (racemic) [tranyl-cypromine, tranylcypromine]						intermediate effect	8.08%±6.28	−6.93%±6.64
CCCC(=O)[O-].[Na+] [butyrate, sodium butyrate]			reduced viability	marginal HbF induction	−4.90%±7.94		4.84%±5.03	
